Source: US20240382558A1, “PHARMACEUTICAL COMPOSITION FOR PREVENTING OR TREATING INTERSTITIAL CYSTITIS/BLADDER PAIN SYNDROME” (priority 2022, published 2024)

How the values were obtained:
[1] = tested on: IC/BPS model rats; test: Cystometry (intravesical pressure and urination volume) in HCl-induced IC/BPS model rats; assay type: in vivo, rat
Method: Through the catheter, 250 μL of saline (Sham group) or 250 μL of 0.1 M HCl (IC group) was instilled into the bladder and held for 1 minute, and then the bladder was washed twice with saline. The Sham and IC groups were each divided into two groups (n=7-8/group), and 200 μL of saline or 200 μL of RGDS peptide solution (500 mg/L saline solution, MedChemExpress) was administered intraperitoneally. On day 7 after administration, a polyethylene catheter was inserted and retained in the apex of the bladder, and a pressure transducer (MLT0699, ADInstruments Ltd, Dunedin, New Zealand), PowerLab 4/26 (ADInstruments Ltd, Dunedin New Zealand) were connected. A syringe pump (YSP-101, YMC Co., Ltd., Kyoto, Japan) was connected to the pressure transducer to measure intravesical pressure and urination volume while continuously instilling 40 μL/min saline solution into the bladder. The pressure at the urination event peak on the cystometrogram was defined as the maximum intravesical pressure, the peak interval as the urination interval, the pressure immediately after the peak as the basal intravesical pressure, the pressure immediately before the peak as the threshold pressure for urination, and the urination volume at the peak as urine volume per urination event.
A similar study to Example 1 was conducted, except that the RGDS peptide used in Example 1 was replaced with 400 μL of cilengitide solution (6.75 g/L saline solution, Tokyo Kasei). In the cilengitide-administered group, the urination interval was prolonged compared to the group that received instillation of saline (FIG. 3), confirming that frequent urination was ameliorated.

[2] = tested on: IC/BPS model rats; test: Pain threshold by electronic von Frey filament on lower abdomen in IC/BPS model rats; assay type: in vivo, rat; conditions: IC+R group vs IC group; day 5 after administration; average of three measurements; FIG. 4
Method: Sham, IC, and IC+R groups were prepared as in Example 1. On day 5 after administration, the rats were placed in a metabolic cage with a wire mesh bottom and allowed to acclimate for 10 minutes, and the lower abdomen was stimulated with increasing pressure using an electronic von Frey filament (BIO-EVF, Bioseb, Vitrolles, France). The pressure at which an escape response was observed was measured as the pain threshold. This measurement was repeated three times with a 5-minute interval, and the average was calculated. The pain threshold increased in the IC+R group compared to the IC group (FIG. 4), confirming an ameliorating trend of pain.

[3] = among Sham, Sham+R, IC, IC+R groups, 200 μL RGDS peptide solution (500 mg/L) intraperitoneally, day 7

Compound: CC(C)[C@H]1C(=O)N[C@@H](CCCN=C(N)N)C(=O)NCC(=O)N[C@@H](CC(=O)O)C(=O)N[C@H](Cc2ccccc2)C(=O)N1C [cilengitide]
- urination interval ([1]; cilengitide-administered IC group vs saline group, 400 μL cilengitide solution (6.75 g/L saline), FIG. 3): prolonged

Compound: RGDS [RGDS peptide]
- urination interval ([1]; IC+R group vs IC group given saline, 200 μL RGDS peptide solution (500 mg/L saline) intraperitoneally, day 7 after administration, FIGS. 1 and 2): significantly prolonged
- basal intravesical pressure [1, 3]: did not differ among all groups
- maximum intravesical pressure [1, 3]: did not differ among all groups
- threshold pressure for urination [1, 3]: did not differ among all groups
- pain threshold (pressure at which an escape response was observed) [2]: increased
